Laboratory results from EP1981504B1, “THIADIAZOLE DERIVATIVES FOR THE TREATMENT OF NEURO DEGENERATIVE DISEASES” (NV reMYND, priority 2006, dated 2007).
In brackets after ≈: the same amount, converted by molar mass.

System: M17-SYNwt cells
Assay: α-synuclein cytotoxicity assay (LDH leakage from paraquat-treated α-synuclein over-expressing neuroblastoma cells)
Assay type: cell-based, human
Conditions: paraquat 32 mM, 40 hours, LDH release; for %I: percent inhibition of synuclein cytotoxicity at most effective concentration of test compound, relative to untreated paraquat cells; for EC50: Homo sapiens, Neuroblastoma cell, 10 point curves in duplicate
Description: Subsequently, LDH activity was determined using Promega Cytotox 96 NonRadioactive cytotoxicity assay, (Cat. G1780) according the supplier's instructions.
This corresponds to the following equation: (LDHreleaseoftreatedparaquatcellsatnon-effectiveconcentrationoftestcmpd)−(LDHreleaseoftreatedparaquatcellsatmosteffectiveconcentrationoftestcmpd)/(LDHreleaseofuntreatedparaquatcells)−(LDHreleasecontrolcells)*100% [formula]
1,2,4-thiadazole compounds made according to the methods described herein were screened for activity using the α-synuclein cytotoxicity assay as described above. Dose responses were carried out on all compounds found to be active (10 point curves in duplicate).

| SMILES | %I [%] | EC50 [µg/mL] |
| --- | --- | --- |
| O=C(Nc1ccc(F)c(F)c1)N1CCN(c2nc(Cc3ccc(F)cc3)ns2)CC1 [Compound 28, N-(3,4-difluorophenyl)-4-[3-(4-fluorobenzyl)-1,2,4-thiadiazol-5-yl]piperazine-1-carboxamide] | 64 | – |
| COc1cc(NC(=O)N2CCN(c3nc(Cc4ccc(F)cc4)ns3)CC2C)cc(OC)c1 (centres unmarked) [Compound 29, N-(3,5-dimethoxyphenyl)-4-[3-(4-fluorobenzyl)-1,2,4-thiadiazol-5-yl]-2-methylpiperazine-1-carboxamide] | 51 | – |
| CC(C)(C)c1ccc(S(=O)(=O)N2CCN(c3nc(Cc4ccc(F)cc4)ns3)CC2)cc1 [Compound 30, 1-[4-tert-butylphenylsulfonyl]-4-[3-(4-fluorobenzyl)-1,2,4-thiadiazol-5-yl]piperazine] | 51 | – |
| COc1ccc(S(=O)(=O)N2CCN(c3nc(Cc4ccc(Cl)cc4)ns3)CC2)cc1 [Compound 31, 1-[4-methoxyphenylsulfonyl]-4-[3-(4-chlorobenzyl)-1,2,4-thiadiazol-5-yl]piperazine] | 59 | 0.000169 (≈ 0.000363 µM) |
| COc1ccc(S(=O)(=O)N2CCN(c3nc(Cc4ccc(F)cc4)ns3)CC2)cc1 [Compound 32, 1-[4-methoxyphenylsulfonyl]-4-[3-(4-fluorobenzyl)-1,2,4-thiadiazol-5-yl]piperazine] | 78 | 0.0024 (≈ 0.00535 µM) |
| O=S(=O)(c1ccc(F)cc1)N1CCN(c2nc(Cc3ccc(Cl)cc3)ns2)CC1 [Compound 33, 1-[4-fluorophenylsulfonyl]-4-[3-(4-chlorobenzyl)-1,2,4-thiadiazol-5-yl]piperazine] | 53 | 0.00282 (≈ 0.00622 µM) |
| Cc1ccc(Cc2nsc(N3CCN(S(=O)(=O)c4ccc(Cl)cc4)C(C)C3)n2)cc1 (centres unmarked) [Compound 34, 1-[4-chlorophenylsulfonyl]-4-[3-(4-methylbenzyl)-1,2,4-thiadiazol-5-yl]-2-methylpiperazine] | 66 | 0.0657 (≈ 0.142 µM) |
| Cc1ccc(Cc2nsc(N3CCN(S(=O)(=O)c4cccc5ccccc45)CC3)n2)cc1 [Compound 35, 1-[1-naphtylsulfonyl]-4-[3-(4-methylbenzyl)-1,2,4-thiadiazol-5-yl]piperazine] | 47 | 0.0472 (≈ 0.102 µM) |
| Cc1ccc(Cc2nsc(N3CCN(S(=O)(=O)c4cc(Cl)ccc4Cl)C(C)C3)n2)cc1 (centres unmarked) [Compound 36, 1-[2,5-dichlorophenylsulfonyl]-4-[3-(4-methylbenzyl)-1,2,4-thiadiazol-5-yl]-2-methylpiperazine] | 52 | 0.1 (≈ 0.201 µM) |
| Cc1ccc(Cc2nsc(N3CCN(S(=O)(=O)c4c(C)cc(C)cc4C)CC3)n2)cc1 [Compound 37, 1-[2,4,6-trimethylphenylsulfonyl]-4-[3-(4-methylbenzyl)-1,2,4-thiadiazol-5-yl]piperazine] | 48 | 0.0731 (≈ 0.16 µM) |
| Cc1ccc(Cc2nsc(N3CCN(S(=O)(=O)c4ccc5ccccc5c4)C(C)C3)n2)cc1 (centres unmarked) [Compound 38, 1-[2-naphtylsulfonyl]-4-[3-(4-methylbenzyl)-1,2,4-thiadiazol-5-yl]-2-methylpiperazine] | 78 | 0.13 (≈ 0.272 µM) |
| O=S(=O)(c1cc(Cl)ccc1Cl)N1CCN(c2nc(Cc3ccc(Cl)cc3)ns2)CC1 [Compound 39, 1-[2,5-dichlorophenylsulfonyl]-4-[3-(4-chlorobenzyl)-1,2,4-thiadiazol-5-yl]piperazine] | 25 | 0.16 (≈ 0.318 µM) |
| Cc1ccc(Cc2nsc(N3CCN(S(=O)(=O)c4cccc5ccccc45)C(C)C3)n2)cc1 (centres unmarked) [Compound 41] | 54 | 0.53 (≈ 1.11 µM) |
| Cc1ccc(Cc2nsc(N3CCN(S(=O)(=O)c4ccc(C(C)(C)C)cc4)C(C)C3)n2)cc1 (centres unmarked) [Compound 42, 1-[4-tert-butylphenylsulfonyl]-4-[3-(4-methylbenzyl)-1,2,4-thiadiazol-5-yl]-2-methylpiperazine] | 33 | 0.87 (≈ 1.79 µM) |
| CC1CN(c2nc(Cc3ccc(Cl)cc3)ns2)CCN1S(=O)(=O)c1cccc2ccccc12 (centres unmarked) [Compound 43, 1-[1-naphtylsulfonyl]-4-[3-(4-chlorobenzyl)-1,2,4-thiadiazol-5-yl]-2-methylpiperazine] | 35 | 0.89 (≈ 1.78 µM) |
| COc1cccc(S(=O)(=O)N2CCN(c3nc(Cc4ccc(F)cc4)ns3)CC2)c1 [Compound 44, 1-[3-methoxyphenylsulfonyl]-4-[3-(4-fluorobenzyl)-1,2,4-thiadiazol-5-yl]piperazine] | 99 | 0.0571 (≈ 0.127 µM) |
| Cc1ccc(Cc2nsc(N3CCN(S(=O)(=O)c4c(C)cc(C)cc4C)C(C)C3)n2)cc1 (centres unmarked) [Compound 45, 1-[2,4,6-trimethylphenylsulfonyl]-4-[3-(4-methylbenzyl)-1,2,4-thiadiazol-5-yl]-2-methylpiperazine] | 56 | 1.2 (≈ 2.55 µM) |

| SMILES | %I [%] | EC50 [µg/mL] |
| --- | --- | --- |
| CC1CN(c2nc(Cc3ccc(F)cc3)ns2)CCN1S(=O)(=O)c1ccccc1 (centres unmarked) [Compound 47, 1-phenylsulfonyl-4-[3-(4-fluorobenzyl)-1,2,4-thiadiazol-5-yl]-2-methylpiperazine] | 129 | – |
| CC(=O)Nc1ccc(S(=O)(=O)N2CCN(c3nc(Cc4ccc(C)cc4)ns3)CC2C)cc1 (centres unmarked) [Compound 48, 1-[4-acetamidophenylsulfonyl]-4-[3-(4-methylbenzyl)-1,2,4-thiadiazof-5-yl]-2-methylpiperazine] | 91 | 0.00844 (≈ 0.0174 µM) |
| CC(=O)Nc1ccc(S(=O)(=O)N2CCN(c3nc(Cc4ccc(C)cc4)ns3)CC2)cc1 [Compound 49, 1-[4-acetamidophenylsulfonyl]-4-[3-(4-methylbenzyl)-1,2,4-thiadiazol-5-yl]piperazine] | 77 | 0.000106 (≈ 0.000225 µM) |
| Cc1ccc(Cc2nsc(N3CCN(S(=O)(=O)c4ccc(C)cc4)C(C)C3)n2)cc1 (centres unmarked) [Compound 50, 1-[4-methylphenylsulfonyl]-4-[3-(4-methylbenzyl)-1,2,4-thiadiazol-5-yl]-2-methylpiperazine] | 105 | – |
| COc1ccc(S(=O)(=O)N2CCN(c3nc(Cc4ccc(Cl)cc4)ns3)CC2C)cc1 (centres unmarked) [Compound 51, 1-[4-methoxyphenylsulfonyl]-4-[3-(4-chlorobenzyl)-1,2,4-thiadiazol-5-yl]-2-methylpiperazine] | 94 | 0.00135 (≈ 0.00281 µM) |
| O=S(=O)(c1ccc2ccccc2c1)N1CCN(c2nc(Cc3ccc(Cl)cc3)ns2)CC1 [Compound 52, 1-[2-naphtylsulfonyl]-4-[3-(4-chlorobenzyl)-1,2,4-thiadiazol-5-yl]piperazine] | 104 | 0.1 (≈ 0.206 µM) |
| CC1CN(c2nc(Cc3ccc(F)cc3)ns2)CCN1S(=O)(=O)c1ccc(C(C)(C)C)cc1 (centres unmarked) [Compound 54, 1-[4-tert-butylphenylsulfonyl]-4-[3-(4-fluorobenzyl)-1,2,4-thiadiazol-5-yl]-2-methylpiperazine] | 60 | – |
| CC(=O)Nc1ccc(S(=O)(=O)N2CCN(c3nc(Cc4ccc(F)cc4)ns3)CC2C)cc1 (centres unmarked) [Compound 55, 1-[4-acetamidophenylsulfonyl]-4-[3-(4-fluorobenzyl)-1,2,4-thiadiazol-5-yl]-2-methylpiperazine] | 114 | 0.0781 (≈ 0.16 µM) |
| Cc1ccc(Cc2nsc(N3CCN(S(=O)(=O)c4cccc(C(F)(F)F)c4)C(C)C3)n2)cc1 (centres unmarked) [Compound 56, 1-[3-trifluoromethylphenylsulfonyl]-4-[3-(4-methylbenzyl)-1,2,4-thiadiazol-5-yl]-2-methylpiperazine] | 87 | – |
| Cc1ccc(Cc2nsc(N3CCN(S(=O)(=O)c4ccc(F)cc4)CC3)n2)cc1 [Compound 57, 1-[4-fluorophenylsulfonyl]-4-[3-(4-methylbenzyl)-1,2,4-thiadiazol-5-yl]piperazine] | 88 | 0.0104 (≈ 0.024 µM) |
| Cc1ccc(Cc2nsc(N3CCN(S(=O)(=O)c4ccc(F)cc4)C(C)C3)n2)cc1 (centres unmarked) [Compound 58, 1-[4-fluorophenylsulfonyl]-4-[3-(4-methylbenzyl)-1,2,4-thiadiazol-5-yl]-2-methylpiperazine] | 58 | 0.061 (≈ 0.137 µM) |
| CC1CN(c2nc(Cc3ccc(F)cc3)ns2)CCN1S(=O)(=O)c1ccc(F)cc1 (centres unmarked) [Compound 59, 1-[4-fluorophenylsulfonyl]-4-[3-(4-fluorobenzyl)-1,2,4-thiadiazol-5-yl]-2-methylpiperazine] | 42 | – |
| COc1ccc(S(=O)(=O)N2CCN(c3nc(Cc4ccc(C)cc4)ns3)CC2C)cc1 (centres unmarked) [Compound 60, 1-[4-methoxyphenylsulfonyl]-4-[3-(4-methylbenzyl)-1,2,4-thiadiazol-5-yl]-2-methylpiperazine] | 93 | 0.0013 (≈ 0.00283 µM) |
| CC(C)(C)c1ccc(S(=O)(=O)N2CCN(c3nc(Cc4ccc(F)cc4)ns3)CC2)cc1 [Compound 61, 1-[4-ter-butylphenylsulfonyl]-4-[3-(4-fluorobenzyl)-1,2,4-thiadiazol-5-yl]piperazine] | 47 | – |
| Cc1ccc(Cc2nsc(N3CCN(S(=O)(=O)c4cccc(C(F)(F)F)c4)CC3)n2)cc1 [Compound 62, 1-[3-trifluoromethylphenylsulfonyl]-4-[3-(4-methylbenzyl)-1,2,4-thiadiazol-5-yl]piperazine] | 45 | – |
| Cc1ccc(S(=O)(=O)N2CCN(c3nc(Cc4ccc(Cl)cc4)ns3)CC2)cc1 [Compound 63, 1-[4-methylphenylsulfonyl]-4-[3-(4-chlorobenzyl)-1,2,4-thiadiazol-5-yl]piperazine] | 83 | 0.0807 (≈ 0.18 µM) |
